The subject of one data set is PICV-GFP. The data set is described as follows: microbe, parasite or virus in culture. Format: cell-based. The note with it: Pichinde virus, Vero C1008, 48 h.
The subject of data set [1] is MLV pseudovirus bearing JUNV glycoprotein. The data set is described as follows: microbe, parasite or virus in culture. The format is cell-based. To be noted: Vero, 24 h.
Data set [2] relates to MLV pseudovirus bearing LCMV glycoprotein. As to the kind of experiment: microbe, parasite or virus in culture. Format: cell-based. To be noted: Vero, 24 h.
For data set [3], the system named is MLV pseudovirus bearing PICV WT glycoprotein. As to the kind of experiment: microbe, parasite or virus in culture. Format: cell-based. To be noted: Vero, 24 h.
Data set [4] deals with MLV pseudovirus bearing MARV Angola glycoprotein. The data set is described as follows: microbe, parasite or virus in culture. The format is cell-based.
The test system of data set [5] is MLV pseudovirus bearing MARV Musoke glycoprotein. As to the kind of experiment: microbe, parasite or virus in culture. The format is cell-based.
Another data set relates to LASV Josiah. The data set is described as follows: microbe, parasite or virus in culture. To be noted: Mammarenavirus lassaense, Vero C1008. Format: cell-based, Lassa virus.
The subject of the next data set is arenaviruses. As to the kind of experiment: organism not typed. Format: cell-based. To be noted: read-out: in vitro IC50.
A further data set has as its system EBOV and MARV. As to the kind of experiment: microbe, parasite or virus in culture. Format: cell-based. To be noted: Zaire ebolavirus, read-out: in vitro IC50.
Data set [6] relates to LASV and JUNV pseudoviruses. As to the kind of experiment: organism not typed. Format: cell-based.
The conditions of data set [7]: human, in vivo, cited from earlier work.

We go through three compounds from patent US20230210816A1 (priority 2020, published 2023).

Where two headings read alike, the source gives them in different places.

As usually defined, the IC50 is the concentration at which inhibition is half-maximal. As usually defined, the Cmax is the peak of the concentration-time curve.

`CCN(CC)Cc1cc(Nc2ccnc3cc(Cl)ccc23)ccc1O` [amodiaquine]: in the data set with PICV-GFP, the IC50 stood at 4.5 µM.
Regarding `CCOC(=O)c1c(CSc2ccccc2)n(C)c2cc(Br)c(O)c(CN(C)C)c12` [arbidol], the half-inhibitory concentration (IC50) in [1] worked out at 6.4 µM; in data set [2] it was 7.4 µM; in data set [3], 7.4 µM; in data set [4] it was 3.9 µM; in data set [5], 3.5 µM; in the data set on PICV-GFP, 8.4 µM. Also, the IC50 was 10 µM in the data set on LASV Josiah; 6 to 10 µM in the data set with arenaviruses; 2.7 to 3.9 µM in the data set on EBOV and MARV; 3 to 4 µM in data set [6] (read-out: IC50 of arbidol in combination). The “fold reduction of IC50 of arbidol by combination” value in [6] is “about 2 fold”. The values for the Cmax in [7] (po) and in [7] were 900 to 1500 nM and 4000 nM, respectively.
Turning to `O=C(Nc1ccc([N+](=O)[O-])cc1Cl)c1cc(Cl)ccc1O` [niclosamide], the IC50 in the data set on PICV-GFP is under 0.2 µM; in the data set with LASV Josiah, 0.2 µM.
